The values below come from patent publication US5410052A, “Symmetrical and unsymmetrical polyalkylamine metal complexes for ligand extraction and generation” (The Regents of the University of California, priority 1990, dated 1995).

Data set [1] is described as follows: Potentiometric pH titration of polyalkylamines: protonation constants (basicity). The format is physicochemical. To be noted: 25°±0.1° C., ca. 1.5 mM PAA; Ref. 3 determined by applicants. The text has this:
the equilibrium constants for successive protonations of the PAA compounds are defined by
KHi =[PAA(H^+)i ]/[PAA(H^+)i-1 ] [H^+ ](10)
Where spectrophotometric characterization of a particular cobalt carrier compound has proven satisfactory, both the polyalkylamine and the cobalt carrier compound are characterized by a set of potentiometric pH titrations to determine the basicity of the ligating atoms, the formation constants KML and KMLH, and the apparent oxygen binding equilibrium constants.
Potentiometric titrations are performed using a Fisher or Cole-Palmer pH meter in a sealed, jacketed glass cell equipped with glass and calomel electrodes and with provisions for performing measurements under oxygen-free conditions. The cell is kept at a constant temperature of 25°±0.1° C. by circulating water from a thermostated bath through the cell jacket. The electrodes and pH meter are standardized with commercially available standard buffer solutions (Fisher Scientific). The polyalkylamine ligands and cobalt carrier compounds were each titrated potentiometrically by incrementally adding standard potassium hydroxide solution and recording the pH of the solution after each addition of base. Titrations of the cobalt carrier compounds are carried out under prepurified nitrogen or argon; titrations of oxygenated carrier compounds are performed under oxygen treated with Ascarite to remove carbon dioxide.
All solutions contained ca. 1.5 mM PAA; for titrations of cobalt complexes, the solutions contained, in addition, 1.5 mM CoCl2.
Typical results obtained as outlined above from pH titrations of selected polyalkylamines, cobalt carrier compounds, and oxygen complexes of cobalt carrier compounds are graphically depicted in FIGS. 2, 3, and 4, and summarized in Table III. The values shown in Table III, defined by equations (6)-(8) and (10). above, were derived either by direct measurement from the titration curves obtained, or determined by the iterative best fit of the data to a computer program such as that described by Harris, et al., Inorganic Chemistry, vol. 17, p. 889, 890 (1978). Generally, although the latter values are considered to be more reliable, values obtained by either methods are approximately the same and sufficient for the present evaluation.

Data set [2] can be described thus: Cyclic voltammetry of Co(PAA)n+ carrier compounds. The format is physicochemical. On the set-up: key to ΔE / EPA / EPC: N.O.: not observed due to low electrochemical activity. On the procedure:
Cyclic voltammentry experiments were performed under nitrogen or iar for the unoxygenated or oxygenated carrier compounds, respectively, in a cell having a platinum wire auxiliary electrode, a silver-silver chloride reference electrode, and suitable working electrode. The potential between the auxiliary and working electrodes was varied with a Princeton Applied Research (Princeton, N.J.) Scanning Potentiostate at 50 mV/s from a suitable initial with a suitable initial scan direction (Scan Dir.), depending on the electrochemical potentials if interest. All solutions contained 1 mM CoCl2, 1 mM or 1.5 mM PAA, and a supporting electrolyte, and were buffered to a suitable pH, usually about the initial working pH.
Cyclic voltammetry enables the estimation of anode (EPA) and cathode (EPC) half cell potentials, the cell potential ΔE=(EPA -EPC), and an approximate formal reaction potential […]. In addition, estimates of the rate of electron transfer to a particular electrode and electrochemical reversibility of the reaction can be obtained.

For data set [3] the following is noted: literature, Ref. 1, 2 or 4; cited from earlier work.
The conditions of data set [4]: cobalt complex, dimeric oxygen complex; literature, Ref. 1 or 4; cited from earlier work.
[5] abbreviates: deox, 1.0 mM PAA, pH 5.93, 0.5M KCl/0.1M K2HPO4, glassy carbon, Einitial +0.1 V, scan +.
The mark [6] stands for this setting: ox, 1.0 mM PAA, pH 5.93, 0.5M KCl/0.1M K2HPO4, glassy carbon, Einitial +0.1 V, scan +.
Setting [7] is: ox, 1.0 mM PAA, pH 3.0, 0.5M KCl/0.1M K2HPO4, glassy carbon, Einitial -0.05 V, scan +.
[8] abbreviates: ox, 1.0 mM PAA, pH 12.0, 0.5M KCl/0.1M K2HPO4, glassy carbon, Einitial +0.19 V, scan -.
Setting [9] is: ox, 1.0 mM PAA, pH 6.0, 0.5M KCl/0.1M K2HPO4, glassy carbon, Einitial +0.1 V, scan +.
[10] abbreviates: deox, 1.0 mM PAA, pH 10.1, 0.5M KCl/0.1M K2HPO4, glassy carbon, Einitial +0.15 V, scan -.
[11] abbreviates: ox, 1.0 mM PAA, pH 10.1, 0.5M KCl/0.1M K2HPO4, glassy carbon, Einitial +0.1 V, scan +.
The mark [12] stands for this setting: deox, 1.5 mM PAA, pH 9.0, 0.5M NaCl/0.1M Borate, glassy carbon, Einitial -0.3 V, scan +.
[13] abbreviates: ox, 1.5 mM PAA, pH 9.0, 0.5M NaCl/0.1M Borate, glassy carbon, Einitial -0.3 V, scan +.

Read-outs that look alike come from different tables or passages of the source.

Turning to `Cc1cccc(CNCCCNCCCNCc2cccc(C)n2)n1` [compound 81], in data set [1], the “Log K1” value stood at 9.44, the “Log K2” value was 7.40, the “Log K3” value was found to be 6.25 and the “Log K4” value stood at 3.40.
As for `Cc1cccc(CNCCNCCNCc2cccc(C)n2)n1` [compound 80], in data set [1], the “Log K1” value was determined as 8.52, the “Log K2” value was found to be 6.72, the “Log K3” value is 4.1 and the “Log K4” value stood at 3.28. Moreover, the “Log K5” value in data set [1] was determined as 2.86.
On to `c1ccc(CNCCCNCCNCc2ccccn2)nc1` [compound 72], for which, in data set [2] (setting [5]), the EPA is 0.03 V, the EPC was 0.66 V, the “E°” value is -0.02 V and the ΔE is listed as 0.11 V. Besides, in data set [2] (setting [6]), the EPA is reported as 0.66 V, the EPC is -0.07 V and the ΔE is recorded as 0.73 V. Besides, in data set [1], the “Log K1” value amounted to 8.6, the “Log K2” value amounted to 6.75 and the “Log K3” value stood at 4.76.
Regarding `NCCNCc1cccc(CNCCN)n1` [compound 69], in data set [2] (setting [7]), the EPA came to 0.5 V, the EPC is -0.2 V and the ΔE is recorded as 0.7 V. In data set [1], the “Log K1” value amounted to 9.31, the “Log K2” value was determined as 8.6, the “Log K3” value was 5.9 and the “Log K4” value was found to be 4.74.
In data set [2] (setting [8]), `CN(CCCNCc1ccccn1)CCCNCc1ccccn1` [compound 76] registered an EPA of 0.25 V, an EPC of -0.35 V and a ΔE of 0.6 V. In data set [1], the “Log K1” value was determined as 9.15, the “Log K2” value is on record as 7.20, the “Log K3” value was found to be 5.79 and the “Log K4” value stood at 3.40.
Consider `c1c[nH]c(CNCCCNCCCNCc2ncc[nH]2)n1` [compound 73], for which, in data set [3], the “Log K1” value is 9.76, the “Log K2” value is 7.22, the “Log K3” value is on record as 6.51 and the “Log K4” value is 3.92. In addition, the “Log K5” value in data set [3] is 3.29. The “Log K02” value in data set [4] was 8.63.
Turning to `c1nc(CNCCNCCNCc2c[nH]cn2)c[nH]1` [compound 75], in data set [3], the “Log K1” value is reported as 9.22, the “Log K2” value is 8.18, the “Log K3” value is given as 4.91 and the “Log K4” value is 3.90. In addition, the “Log K5” value in data set [3] is 2.92. For the same compound, in data set [1], the “Log K1” value is 9.15, the “Log K2” value was found to be 8.03, the “Log K3” value is 4.92 and the “Log K4” value worked out at 3.91.
`c1ccc(CCNCc2cccc(CNCCc3ccccn3)n2)nc1` [compound 63]: in data set [2] (setting [9]), the EPA entry is “N.O”, the EPC result was “N.O” and the ΔE entry is on record as “N.O”. Moreover, in data set [1], the “Log K1” value is on record as 8.75, the “Log K2” value is listed as 7.61 and the “Log K3” value was determined as 3.81.
For the compound `c1ccc(CNCCCCNCCCNCc2ccccn2)nc1` [compound 78], in data set [2] (setting [10]), the EPA was determined as 0.18 V, the EPC was found to be 0.1 V, the “E°” value came out at 0.14 V and the ΔE was 0.08 V. Besides, in data set [2] (setting [11]), the EPA turned out to be 0.185 V, the EPC amounted to 0.055 V, the “E°” value is given as 0.12 V and the ΔE amounted to 0.13 V. In data set [1], the “Log K1” value is 9.36, the “Log K2” value is given as 7.69 and the “Log K3” value is reported as 6.60.
Regarding `NCCNCCNCCNCCN` [compound 33], in data set [2] (setting [12]), the EPA was -0.33 V, the EPC is listed as -0.45 V, the “E°” value was -0.39 V and the ΔE was 0.12 V. Further, in data set [2] (setting [13]), the EPA worked out at 0.7 V, the EPC is -0.5 V and the ΔE is given as 1.2 V. Also, in data set [3], the “Log K1” value was 9.85, the “Log K2” value was 9.27, the “Log K3” value is given as 8.19 and the “Log K4” value is listed as 5.08. For the same compound, in data set [3], the “Log K5” value is recorded as 3.43. For the same compound, the “Log K02” value in data set [4] was 15.83.
